Assay results as given in ChEMBL document CHEMBL1201862, “PubChem BioAssay data set” (2004).
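How tested: cells in 96-well plates exposed to compound for 48 hours at five concentrations. GI50 is the concentration that inhibits growth by half.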 Activity calls are given as the source filed them. Cut-off read from the data, not from the text of the source: active = GI50 up to about 1.1 µM and inactive = higher.

Assays:
Assay in all cases: inhibition of tumour cell growth, NCI panel, 48 h
[1] = test system: A498
[2] = test system: COLO 205
[3] = test system: DLD-1
[4] = test system: M14
[5] = test system: M19-MEL
[6] = test system: OVCAR-5
[7] = test system: SF-295
[8] = test system: SK-OV-3
[9] = test system: SN12C
[10] = test system: SNB-75
[11] = test system: SNB-78
[12] = test system: TK-10
[13] = test system: UACC-257
[14] = test system: UACC-62
[15] = test system: BT-549
[16] = test system: MDA-N
[17] = test system: NCI/ADR-RES
[18] = test system: PC-3
[19] = test system: SK-MEL-2
[20] = test system: 786-0

Measured: GI50

COc1ccc(/C=C/C(=O)C(C)(C)C)cc1OC
inactive: [1] > 100 µM | [2] > 100 µM | [3] 65.9 µM | [4] > 100 µM | [5] > 100 µM | [6] > 100 µM | [7] > 100 µM | [8] 76.2 µM | [9] 65.8 µM | [10] 34.4 µM | [11] 38 µM | [12] > 100 µM | [13] 63.5 µM | [14] 52.6 µM

Cc1cn(C2CC(n3cc(Cn4ccc(=O)[nH]c4=O)nn3)C(CO)O2)c(=O)[nH]c1=O (stereo not given)
inactive: [1] > 100 µM | [15] > 100 µM | [2] > 100 µM | [4] > 100 µM | [16] > 100 µM | [17] > 100 µM | [6] > 100 µM | [18] > 100 µM | [7] > 100 µM | [19] > 100 µM | [8] 49 µM | [9] > 100 µM | [10] > 100 µM | [12] > 100 µM | [13] > 100 µM | [14] > 100 µM

CCOC(=O)C(C(=O)OCC)C(=S)NC1OC(COC(C)=O)C(OC(C)=O)C(OC(C)=O)C1OC(C)=O (stereo not given)
inactive: [20] > 100 µM | [1] > 100 µM | [15] > 100 µM | [2] > 100 µM | [4] > 100 µM | [16] > 100 µM | [17] > 100 µM | [6] > 100 µM | [7] > 100 µM | [19] > 100 µM | [8] > 100 µM | [9] > 100 µM | [13] > 100 µM | [14] > 100 µM

Cc1ccc(/N=N/C(C2=NC(=O)CS2)c2nc3ccccc3[nH]2)cc1 (stereo not given)
inactive: [1] > 100 µM | [2] > 100 µM | [3] > 100 µM | [4] > 100 µM | [5] > 100 µM | [6] > 100 µM | [7] > 100 µM | [8] > 100 µM | [9] > 100 µM | [10] 59.2 µM | [12] > 100 µM | [13] > 100 µM | [14] > 100 µM

CC(C)(Br)C(=O)N1CCN(C(c2ccccc2)c2ccccc2)CC1
inactive: [20] > 100 µM | [1] > 100 µM | [15] > 100 µM | [2] > 100 µM | [4] > 100 µM | [16] > 100 µM | [17] > 100 µM | [6] > 100 µM | [18] 50.1 µM | [7] > 100 µM | [19] > 100 µM | [8] > 100 µM | [9] 84.9 µM | [10] > 100 µM | [12] > 100 µM | [13] 41.9 µM | [14] > 100 µM

N#CCCSC(=S)C1CCCC1=N (stereo not given)
inactive: [20] > 100 µM | [1] > 100 µM | [15] > 100 µM | [2] > 100 µM | [4] > 100 µM | [16] > 100 µM | [17] > 100 µM | [6] > 100 µM | [18] > 100 µM | [7] > 100 µM | [19] > 100 µM | [8] > 100 µM | [9] > 100 µM | [10] 3.88 µM | [12] > 100 µM | [13] > 100 µM | [14] > 100 µM

COc1ccc(C2=C(N)c3cc(OC)ccc3C2=O)cc1
inactive: [20] > 100 µM | [1] > 100 µM | [15] > 100 µM | [2] > 100 µM | [4] > 100 µM | [16] > 100 µM | [17] 88.7 µM | [6] > 100 µM | [18] > 100 µM | [7] > 100 µM | [19] > 100 µM | [8] > 100 µM | [9] > 100 µM | [10] 16.1 µM | [13] > 100 µM | [14] > 100 µM

C#CCCCCC#Cc1ccccc1C(=O)OC
inactive: [1] > 100 µM | [2] > 100 µM | [3] 47.2 µM | [4] > 100 µM | [6] 52.8 µM | [7] 37.3 µM | [19] 39.7 µM | [8] > 100 µM | [9] 35 µM | [10] 20.6 µM | [12] > 100 µM | [13] 71.8 µM | [14] 32.7 µM

CCOC(=O)N1CCN(Cc2cc(=O)n3cc(C)ccc3n2)CC1
inactive: [20] > 100 µM | [15] > 100 µM | [2] > 100 µM | [4] > 100 µM | [16] > 100 µM | [17] > 100 µM | [6] > 100 µM | [18] > 100 µM | [7] > 100 µM | [19] > 100 µM | [8] > 100 µM | [9] > 100 µM | [10] > 100 µM | [12] > 100 µM | [13] > 100 µM | [14] > 100 µM

CCCCCCNC(=O)C(C)C1CCC2(C)C=CC(=O)C(C)=C2C1O (stereo not given)
inactive: [1] > 100 µM | [2] > 100 µM | [3] > 100 µM | [17] > 100 µM | [6] 99.1 µM | [7] > 100 µM | [19] > 100 µM | [8] > 100 µM | [9] > 100 µM | [10] > 100 µM | [11] > 100 µM | [13] > 94.8 µM | [14] > 100 µM

COc1cc(OC)cc(N2CCC(c3c(N)nc(N)nc3Cl)CC2)c1
inactive: [20] > 100 µM | [2] 58.1 µM | [3] 75.7 µM | [4] 75.3 µM | [5] > 100 µM | [6] > 100 µM | [7] 83 µM | [19] 92.3 µM | [8] > 100 µM | [9] > 100 µM | [10] 47.6 µM | [11] > 100 µM | [12] > 100 µM | [13] 43.7 µM | [14] 52.6 µM

Cc1cc2c(cc1Cl)Sc1n[nH]c(=O)n1S2(=O)=O
inactive: [20] > 100 µM | [1] 19.4 µM | [15] > 100 µM | [2] > 100 µM | [4] > 100 µM | [16] > 100 µM | [17] > 100 µM | [6] > 100 µM | [18] > 100 µM | [7] > 100 µM | [8] > 100 µM | [9] > 100 µM | [10] > 100 µM | [12] > 100 µM | [13] > 100 µM | [14] > 100 µM

Cc1coc2c1C[C@@]1(C)[C@H](CCC[C@@H]1C)[C@H]2O
inactive: [2] 41.6 µM | [4] 60.4 µM | [16] 49.9 µM | [17] 24.3 µM | [6] 37.2 µM | [18] 19.1 µM | [7] 30.9 µM | [8] > 100 µM | [9] 15.6 µM | [12] 54 µM | [13] 31.8 µM | [14] 69.5 µM

CCOC(=O)c1ccc(NC(=O)O/N=C(/Cl)CC)cc1
inactive: [20] 5.85 µM | [1] 15.7 µM | [15] 19.2 µM | [2] 2.41 µM | [4] 2.14 µM | [16] 16.8 µM | [17] 14 µM | [6] 18.2 µM | [18] 18.8 µM | [7] 19.5 µM | [19] 16.4 µM | [8] 17.9 µM | [9] 19.9 µM | [10] 13.6 µM | [13] 16.1 µM | [14] 21 µM

NCC[Se][Se]CCN
inactive: [20] 14 µM | [1] 9.18 µM | [15] 14.4 µM | [2] 4.06 µM | [4] 3.83 µM | [16] 10.9 µM | [17] 9.31 µM | [6] 5.56 µM | [18] 10.9 µM | [7] 3.2 µM | [19] 7.57 µM | [8] 8.15 µM | [9] 6.76 µM | [10] 10.6 µM | [12] 13.3 µM | [13] 7.06 µM | [14] 17.3 µM

CCOC(=O)CP(=S)(S)c1ccccc1 (stereo not given)
inactive: [20] > 100 µM | [1] > 100 µM | [2] > 100 µM | [3] > 100 µM | [5] > 100 µM | [6] > 100 µM | [7] > 10 µM | [19] > 100 µM | [8] > 100 µM | [9] > 100 µM | [11] > 100 µM | [12] > 100 µM | [13] > 100 µM | [14] > 100 µM

Cc1ccc2c(O)cc(-c3ccc(F)cc3)nc2n1
inactive: [1] 25.1 µM | [15] 86.3 µM | [2] 17.2 µM | [4] 47.6 µM | [16] 12.1 µM | [17] 25.7 µM | [6] 70.1 µM | [19] 45.7 µM | [8] 40.2 µM | [9] 52 µM | [10] 14.1 µM | [12] 46.6 µM | [13] 34.1 µM | [14] 24.1 µM

COc1cc2c(cc1O)CCN(C)[C@H]2Cc1ccc(Oc2c(O)c(OC)cc3c2C[C@H]2c4c(c(OC)c(OC)c(OC)c4-3)CCN2C)cc1 [THALIFABERIDINE]
inactive: [20] 4.53 µM | [1] 7.41 µM | [15] 5.75 µM | [2] 7.08 µM | [4] 5.4 µM | [16] 4.94 µM | [17] 5.56 µM | [6] 7.5 µM | [18] 4.31 µM | [7] 5.79 µM | [19] 6.82 µM | [8] 5.42 µM | [9] 5.35 µM | [10] 4.51 µM | [12] 6.11 µM | [13] 7.01 µM | [14] 3.97 µM
